Assay results as given in ChEMBL document CHEMBL1140757, “Studies toward the structural optimization of new brazilizone-related trypanocidal 1,3,4-thiadiazole-2-arylhydrazone derivatives” (Bioorg Med Chem, 2008).

Tested on: Trypanosoma cruzi
Experiment: Trypanocidal activity against Trypanosoma cruzi Y trypomastigotes assessed as parasite lysis
Format: functional, organism-based

Compound | IC50 [µM]
Cn1c([N+](=O)[O-])cnc1-c1nnc(N/N=C/c2cccc(O)c2)s1 | 73.9
Cn1c([N+](=O)[O-])cnc1-c1nnc(N/N=C/c2cccc(Br)c2)s1 | 728
Cn1c([N+](=O)[O-])cnc1-c1nnc(N/N=C/c2cc(O)ccc2O)s1 | 140
Cn1c([N+](=O)[O-])cnc1-c1nnc(N/N=C/c2cccc(Cl)c2)s1 | 187
Cn1c([N+](=O)[O-])cnc1-c1nnc(N/N=C/c2cccc([N+](=O)[O-])c2)s1 | 48.2
Cn1c([N+](=O)[O-])cnc1-c1nnc(N/N=C/c2cccc(O)c2O)s1 | 309
Cn1c([N+](=O)[O-])cnc1-c1nnc(N/N=C/c2ccccc2Br)s1 | 900
Cn1c([N+](=O)[O-])cnc1-c1nnc(N/N=C/c2ccc(Cl)cc2Cl)s1 | 794
COc1cc(/C=N/Nc2nnc(-c3ncc([N+](=O)[O-])n3C)s2)cc([N+](=O)[O-])c1O | 19
Cn1c([N+](=O)[O-])cnc1-c1nnc(N/N=C/c2cccc(Cl)c2Cl)s1 | 1210
Cn1c([N+](=O)[O-])cnc1-c1nnc(N/N=C/c2ccccc2[N+](=O)[O-])s1 | 726
Cn1c([N+](=O)[O-])cnc1-c1nnc(N/N=C/c2ccccc2Cl)s1 | 140
